Laboratory results published in PubChem BioAssay AID1996.
≈ marks a conversion by molar mass, not a printed value.

Settings: buffer; pH 7.4; 200.0 µM

Row | SMILES | solubility kinetic [µg/mL]
1 | Cn1c(SCc2ccccc2C#N)nnc1-c1ccncc1 | > 46.1
2 | COC(=O)[C@H](Cc1ccccc1)NC(=O)NC(C)CCc1ccccc1 (some centres not stated) | 49.8 (≈ 140 µM)
3 | CC1CCCCN1C(=S)NC(=O)c1ccccc1 (configuration not stated) | > 39.4
4 | Cc1cccc2c(N=O)c(O)[nH]c12 | > 26.4
5 | C=CCc1ccccc1Oc1cc(OC)nc(N)n1 | > 38.6
6 | CCCCOc1ccc(C(=O)CCN2CCCCC2)cc1.Cl | > 48.9
7 | Cc1cc(C)nc(N2CCCC(C(=O)Nc3ccc(F)cc3)C2)n1 (configuration not stated) | 1.2 (≈ 3.65 µM)
8 | CC(C)=C(NC(=O)c1ccccc1)C(=O)Nc1cccc(C)c1 | 2.8 (≈ 9.08 µM)
9 | O=C(Nc1sc2c(c1C(=O)O)CCC2)c1ccccc1F | > 45.8
10 | O=C(O)c1cccnc1Sc1ccccc1Cl | 37.6 (≈ 142 µM)
11 | Cc1cccc(Nc2ncnc(N)c2[N+](=O)[O-])n1 | > 36.9
12 | CCOc1ccc(C(=O)NCc2ccco2)cc1OCC | 22.5 (≈ 77.8 µM)
13 | Cn1c(N)nc2ccccc2c1=O | 21.9 (≈ 125 µM)
14 | CC(=O)C1=C(C)OC(N)=C(C#N)C1c1cccnc1 (configuration not stated) | > 38.3
15 | COc1cc(C(=O)Nc2cc(C)ccc2C)ccc1OCc1c(C)noc1C | 7.1 (≈ 18.7 µM)
16 | CC1CCN(Cc2cc(=O)oc3cc4c(cc23)CCCC4)CC1 | < 0.7
17 | CN(CC(=O)Nc1ccc(F)c(F)c1F)C(=O)C1CCCO1 (configuration not stated) | > 47.4
18 | O=C(NCCCCNC(=O)c1ccc(F)cc1)c1ccc(F)cc1 | 3.9 (≈ 11.7 µM)
19 | Cc1[nH]c2ccccc2c1C(=O)C(=O)NC1CC1 | > 36.3
20 | CC(C)Cc1nc(Cl)c(C#N)c2c1CCC2 | 3.8 (≈ 16.2 µM)
21 | O=C1c2cccc3cccc(c23)C(=O)N1Cc1cccnc1 | 1.6 (≈ 5.55 µM)
22 | COc1ccccc1NC(=O)COc1cccc2c1CCNC2=O | 6.9 (≈ 21.1 µM)
23 | COc1cc2ccccc2cc1C(=O)N1CCCC(C(F)(F)F)C1 (configuration not stated) | > 50.6
24 | Nc1nc(-c2ccc(F)cc2)cs1 | > 29.1
25 | CCC(=O)Nc1ccc(S(=O)(=O)N2CCc3ccccc32)cc1 | 41.2 (≈ 125 µM)

Row | SMILES | solubility kinetic [µg/mL]
26 | CN1CCN(CC#Cc2ccccc2)CC1CCO (configuration not stated) | > 38.8
27 | O=C1c2cccc3cccc(c23)N1Cc1cccc(F)c1 | 2.6 (≈ 9.38 µM)
28 | Cc1cc(C=C2C(=O)NC(=O)NC2=O)c(C)n1-c1ccncc1 | > 46.5
29 | Cc1nonc1NC(=O)CSc1ccccn1 | > 37.5
30 | COc1ccc(CCNC(=O)C2(c3ccccc3)CC2)cc1 | 43.8 (≈ 148 µM)
31 | CNC(=S)N(CCc1c(C)[nH]c2ccccc12)Cc1cccnc1 | > 50.8
32 | CC(C)Oc1ccc(C(=O)NC2=NCCS2)cc1 | 23.1 (≈ 87.4 µM)
33 | O=C(CSc1nccc(-c2cccs2)n1)Nc1ccccc1 | 2.3 (≈ 7.02 µM)
34 | O=C(O)CC1(CC(=O)Nc2ccc(Cl)cc2C(=O)c2ccccc2)CCCC1 | > 60
35 | COC(=O)C(C)NC(=O)COc1ccc2ccccc2c1 (configuration not stated) | > 43.1
36 | Cc1ccc(O)c(NC(=O)c2cc(-c3cccs3)on2)c1 | 0.6 (≈ 2 µM)
37 | Cc1ccc(S(=O)(=O)Cc2ccc([N+](=O)[O-])cc2)cc1 | < 0.6
38 | COc1cccc(C=NCCCN=Cc2cccc(OC)c2O)c1O | > 51.4
39 | CCCc1cc(=O)[nH]c(SCc2nc3ccccc3o2)n1 | > 45.2
40 | CCOc1cccc(C(=O)Nc2cccc(NC(=O)c3ccco3)c2)c1 | 3.9 (≈ 11.1 µM)
41 | COC(=O)c1sccc1NC(=O)c1ccccc1F | 1 (≈ 3.58 µM)
42 | CCOc1cc2c(cc1OCC)C(c1ccc(F)cc1)NCC2 (configuration not stated) | > 47.3
43 | COc1ccc(C(=O)Nc2cccc(S(=O)(=O)NC3=NCCC3)c2)cc1OC | 40.4 (≈ 100 µM)
44 | CCOc1ccc(C(C)=O)cc1Cn1c(=O)oc2ccccc21 | 13.7 (≈ 44 µM)
45 | Cc1ccc(C2=NN(CC(=O)NCCN(C)C)C(=O)CC2)cc1 | > 47.5
46 | CC(=O)NC1=NN(C(C)=O)C(c2ccco2)S1 (configuration not stated) | > 38
47 | Cc1c(Cl)cccc1NC(=O)CSc1nccn1C | > 44.4
48 | O=C(CCCn1cnc([N+](=O)[O-])n1)Nc1cc(Cl)ccc1O | > 48.9
49 | COc1ccc(S(=O)(=O)N2CCc3ccccc32)cc1C(=O)NCC(c1ccco1)N1CCCC1 (configuration not stated) | 20.1 (≈ 40.6 µM)
50 | O=C(NCc1ccccc1F)C1CCCN1C(=O)Nc1ccccc1 (configuration not stated) | > 51.2

Row | SMILES | solubility kinetic [µg/mL]
51 | COc1ccc(NC(=O)C2CCCN(c3nc(C)cc(C)n3)C2)cc1 (configuration not stated) | 1.4 (≈ 4.11 µM)
52 | Cc1cccc(NC(=O)Cc2c(F)cccc2Cl)n1 | > 41.8
53 | Cc1ccc(C)c(OCC(=O)Nc2ccccc2N2CCCC2)c1 | 1.3 (≈ 4.01 µM)
54 | COC(=O)c1ccccc1NC(=O)Nc1ccc(Cl)cn1 | > 45.9
55 | COC(=O)C(Cc1c[nH]c2ccccc12)NC(=O)c1cccs1 (configuration not stated) | > 49.3
56 | Cc1ccc2c(c1)N(Cc1ccc([N+](=O)[O-])cc1)C=NS2(=O)=O | 34.9 (≈ 105 µM)
57 | COCCN(C(=S)Nc1c(C)cccc1C)C(C)c1cccs1 (configuration not stated) | 16.1 (≈ 46.2 µM)
58 | COc1cccc2c(C)cc(N3CCCCCC3)nc12 | 33.2 (≈ 123 µM)
59 | C=CCNC(=S)/N=c1/ccccn1CC | 28.7 (≈ 130 µM)
60 | COc1ccc(/C=C/C(=O)NCCSCc2ccco2)cc1OC | 41.9 (≈ 121 µM)
61 | COc1cc(OC)cc(C(=O)NC(=S)N2CCCCCC2)c1 | 43.6 (≈ 135 µM)
62 | CC1(C)CC(=O)C2=C(C1)NC(=O)NC2c1ccc(Cl)cc1 (configuration not stated) | 6.9 (≈ 22.6 µM)
63 | CN(C)C(=O)Oc1ccnc2cc(Cl)ccc12 | > 37.6
64 | CCN(C(=O)CSc1nc(C)cc(=O)[nH]1)C1CCCCC1 | > 46.4
65 | CN(C(=S)NC(=O)c1ccccc1)C1CCCCC1 | > 41.5
66 | CC(C)Oc1ccccc1NC(=O)CSc1nccn1C | > 45.8
67 | CCC1Oc2ccccc2N(CC(=O)NC2CCCCC2)C1=O (configuration not stated) | 43.9 (≈ 139 µM)
68 | CCN(CC)CCC(=O)c1ccc(F)cc1.Cl | > 39
69 | COc1ccc(OC)c(CN2CCSCC2)c1 | 25.5 (≈ 101 µM)
70 | COc1ccc(NC(=O)C2CC(=O)n3c(nc4ccccc43)N2)cc1 (configuration not stated) | 0.3 (≈ 0.892 µM)
71 | CCN=C1S/C(=C\c2cc(Cl)c(OC)c(OC)c2)C(=O)N1CC | 0.8 (≈ 2.25 µM)
72 | COc1ccnc2c1c(=O)n(Cc1c(F)cccc1Cl)c(=O)n2C | 9.8 (≈ 28 µM)
73 | CN(Cc1ccccc1)c1ccc(N2C(=O)CCC2=O)cc1[N+](=O)[O-] | 38.7 (≈ 114 µM)
74 | Cc1c(C(=O)NCc2ccccn2)oc2c(Cl)cccc12 | > 45.1
75 | COc1ccc(N2CCCC2)c(NC(=O)COc2ccccc2Cl)c1 | 1 (≈ 2.77 µM)

Row | SMILES | solubility kinetic [µg/mL]
76 | Cc1ccc2c(c1)sc1nc(=O)ccn12 | > 32.4
77 | CC1CCCN(C(=O)/C(=C/c2ccco2)NC(=O)c2ccccc2)C1 (configuration not stated) | > 50.8
78 | Cc1cccc(NC(=S)NCCc2ccccc2)c1C | 4.1 (≈ 14.4 µM)
79 | Cc1ccnc(NCc2cccc3ccccc23)c1.Cl | 15.8
80 | COc1cccc(N=C2CC(C)(C)CC(=O)/C2=C(/O)c2ccccc2)c1 | 0.9 (≈ 2.58 µM)
81 | CCc1ccc(N2C(=O)C3C(C2=O)N2CCCN2C3c2ccccc2)cc1 (configuration not stated) | > 54.2
82 | Cc1csc(NC(=O)c2cc3ccccc3o2)n1 | 16 (≈ 61.9 µM)
83 | COc1ccc(CC(=O)Nc2cc(C)ccc2O)cc1OC | > 45.2
84 | Nc1ccc(CCN2CCN(c3cccc(C(F)(F)F)c3)CC2)cc1 | > 52.4
85 | O=C(CSc1nnc2ccccn12)NC(=O)c1cccc([N+](=O)[O-])c1 | > 53.6
86 | C=CCn1c(O)c(C(C)=NCCc2c[nH]c3ccccc23)c(=O)[nH]c1=O | 33.5 (≈ 95.1 µM)
87 | O=c1c2ccccc2nc(Cc2ccccc2)n1-c1ccccc1O | > 49.3
88 | Cc1ccc(O)c(NC(=O)c2cc(-c3ccco3)on2)c1 | 1.2 (≈ 4.22 µM)
89 | CCOC(=O)CNC(=O)CNC(=O)c1ccc(OC(C)C)cc1 | > 48.4
90 | CCCc1nnc(NC(=O)CS(=O)(=O)c2ccccc2)s1 | > 48.8
91 | O=C(O)CCCC(=O)Nc1ccc(Oc2cccc(C(F)(F)F)c2)nc1 | > 55.2
92 | COc1ccccc1CNC(=O)COC(=O)/C=C/c1ccc2ccccc2n1 | 9.8 (≈ 26 µM)
93 | O=C(c1ccco1)N1CCN(S(=O)(=O)c2cccc(Cl)c2)CC1 | > 53.2
94 | Cc1oncc1C(=O)Nc1cccc(C#N)c1 | > 34.1
95 | CN(C)c1ccc(C(=O)OCC(=O)c2ccc[nH]2)cc1 | 7.8 (≈ 28.6 µM)
96 | CCOC(=O)/C(C#N)=C/c1cccc(F)c1 | 28.6 (≈ 130 µM)
97 | COc1ccc(/C=C(\C)c2nc(C)c(-c3ccccc3)c(=O)[nH]2)cc1 | 1.4 (≈ 4.21 µM)
98 | CC(C)C1N(C(N)=S)N=CC1(C)C (configuration not stated) | > 29.9
99 | S=C(NCc1ccc2c(c1)OCO2)NC1CC1 | > 37.5
100 | COc1ccc(OCCC(=O)OCC(=O)NC2CCCCC2)cc1 | 37 (≈ 110 µM)

Row | SMILES | solubility kinetic [µg/mL]
101 | COc1cccc(/C=C/C(=O)OCC(=O)NCCc2ccccc2)c1 | 6.7 (≈ 19.7 µM)
102 | CCC(C)(C)NC(=O)CCCSc1nc2ccccc2[nH]1 | 28.7 (≈ 94 µM)
103 | Cc1cccc(C(=O)NCCNC(=O)c2ccco2)c1 | 34.5 (≈ 127 µM)
104 | O=C(C1CC(=O)N(c2ccc(F)cc2)C1)N1CCCCCC1 (configuration not stated) | > 45.7
105 | O=C(NCCc1ccc(Cl)cc1)c1ccc(=O)[nH]c1 | 38.1 (≈ 138 µM)
106 | Cc1cc(C(=O)COC(=O)c2ccc(NC(=O)CC#N)cc2)c(C)n1-c1ccc(OC(F)F)cc1 | 1.7 (≈ 3.53 µM)
107 | NC(=O)COC(=O)CC12CC3CC(CC(Br)(C3)C1)C2 | > 49.5
108 | CCc1ccc(NC(=O)NC2CCCCCCC2)cc1 | < 0.3
109 | O=C(CCC(=O)c1ccccc1)Nc1ccccc1OC(F)F | > 47.9
110 | CN1C(=O)C(CC(=O)NC2CCCCC2)N(C)C1=O (configuration not stated) | > 40.1
111 | O=C(c1ccccc1F)N1CCC2(CC1)OCCO2 | > 39.8
112 | CCOC(=O)c1c(C)[nH]c(C)c1C=O | > 29.3
113 | CCOc1ccc(NC(=O)Nc2ccon2)cc1 | 36.9 (≈ 149 µM)
114 | O=C(NC1CCC(O)CC1)c1ccc(Br)o1 (configuration not stated) | > 43.2
115 | CCCOP(=O)(c1ccc(N(C)C)cc1)C(O)c1ccc(Cl)cc1 (configuration not stated) | 18.5 (≈ 50.3 µM)
116 | Nc1ccc(-c2cnc3ccccc3n2)cc1 | 27.4 (≈ 124 µM)
117 | Cl.O=C(COc1ccc(F)cc1)NCCN1CCCC1 | > 45.4
118 | COc1ccc(/C(N)=N/OC(=O)CC2CCCCC2)cc1 | 2.8 (≈ 9.64 µM)
119 | O=C(NCC1CCCO1)c1cccc(Oc2ccccc2)c1 (configuration not stated) | 40.1 (≈ 135 µM)
120 | O=C(COc1ccc(F)c(Cl)c1)Nc1ccc(N2CCOCC2)cc1 | 5.4 (≈ 14.8 µM)
121 | O=C(NCc1ccccn1)C(=O)Nc1cccc2ccccc12 | 35.4 (≈ 116 µM)
122 | O=C(NC1CCCC1)C1CCN(C(=O)c2ccccc2Cl)CC1 | > 50.2
